Test results: PMC10615177 (ACS infectious diseases, 2023)
Converted amounts (≈) assume the structure as drawn. Like-named read-outs stand apart in the source and are kept apart here.

Experiments:
M. smegmatis = M. smegmatis cell growth inhibition; type: cell-based, Mycobacterium smegmatis
M. tuberculosis HN878 = M. tuberculosis HN878 growth inhibition; type: cell-based, Mycobacterium tuberculosis; settings: for MIC: HN878, read-out: Mtb HN878 MIC
M. tuberculosis Erdman = M. tuberculosis Erdman growth inhibition; type: cell-based, Mycobacterium tuberculosis; settings: Mycobacterium tuberculosis, ERDMAN, read-out: Mtb Erdman MIC
M. tuberculosis H37Rv = M. tuberculosis H37Rv growth inhibition; type: cell-based, Mycobacterium tuberculosis; settings: Mycobacterium tuberculosis, H37RV, read-out: Mtb H37Rv MIC
Bacillus subtilis = assay: B. subtilis growth inhibition; type: cell-based; settings: Bacillus subtilis, read-out: Bs IC50
E. coli = E. coli growth inhibition; type: cell-based, Escherichia coli
[1] = system: T. brucei bloodstream forms; assay: T. brucei bloodstream form growth inhibition; type: cell-based, Trypanosoma brucei; settings: Trypanosoma brucei, read-out: T. brucei IC50
[2] = system: T. cruzi Dm28c epimastigotes; assay: T. cruzi epimastigote growth inhibition; type: cell-based, Trypanosoma cruzi; settings: Trypanosoma cruzi, read-out: T. cruzi IC50 (EPI)
[3] = system: T. cruzi Dm28c intracellular amastigotes; assay: T. cruzi intracellular amastigote inhibition; type: cell-based, Trypanosoma cruzi; settings: Trypanosoma cruzi, U2OS, read-out: T. cruzi IC50 (PAR)
[4] = system: L. donovani promastigotes; assay: L. donovani promastigote growth inhibition; type: cell-based, Leishmania donovani; settings: Leishmania donovani, read-out: L. donovani IC50
in vitro [5] = settings: human
[6] = system: M. abscessus smooth variant; assay: microbe, parasite or virus in culture; type: cell-based
[7] = system: M. abscessus rough variant; assay: microbe, parasite or virus in culture; type: cell-based
[8] = system: Plasmodium falciparum asexual blood stages; assay: P. falciparum asexual blood stage; type: cell-based; settings: for IC50: Plasmodium falciparum, read-out: PfABS IC50 (μM ± S.E.), asexual blood stages
[9] = target: M. tuberculosis MmpL3 (MtMmpL3) (Mycobacterium tuberculosis, UniProt P9WJV5); assay: Surface plasmon resonance binding to MmpL3
M. tuberculosis MmpL3 (MtMmpL3), sequence (P9WJV5 whole entry): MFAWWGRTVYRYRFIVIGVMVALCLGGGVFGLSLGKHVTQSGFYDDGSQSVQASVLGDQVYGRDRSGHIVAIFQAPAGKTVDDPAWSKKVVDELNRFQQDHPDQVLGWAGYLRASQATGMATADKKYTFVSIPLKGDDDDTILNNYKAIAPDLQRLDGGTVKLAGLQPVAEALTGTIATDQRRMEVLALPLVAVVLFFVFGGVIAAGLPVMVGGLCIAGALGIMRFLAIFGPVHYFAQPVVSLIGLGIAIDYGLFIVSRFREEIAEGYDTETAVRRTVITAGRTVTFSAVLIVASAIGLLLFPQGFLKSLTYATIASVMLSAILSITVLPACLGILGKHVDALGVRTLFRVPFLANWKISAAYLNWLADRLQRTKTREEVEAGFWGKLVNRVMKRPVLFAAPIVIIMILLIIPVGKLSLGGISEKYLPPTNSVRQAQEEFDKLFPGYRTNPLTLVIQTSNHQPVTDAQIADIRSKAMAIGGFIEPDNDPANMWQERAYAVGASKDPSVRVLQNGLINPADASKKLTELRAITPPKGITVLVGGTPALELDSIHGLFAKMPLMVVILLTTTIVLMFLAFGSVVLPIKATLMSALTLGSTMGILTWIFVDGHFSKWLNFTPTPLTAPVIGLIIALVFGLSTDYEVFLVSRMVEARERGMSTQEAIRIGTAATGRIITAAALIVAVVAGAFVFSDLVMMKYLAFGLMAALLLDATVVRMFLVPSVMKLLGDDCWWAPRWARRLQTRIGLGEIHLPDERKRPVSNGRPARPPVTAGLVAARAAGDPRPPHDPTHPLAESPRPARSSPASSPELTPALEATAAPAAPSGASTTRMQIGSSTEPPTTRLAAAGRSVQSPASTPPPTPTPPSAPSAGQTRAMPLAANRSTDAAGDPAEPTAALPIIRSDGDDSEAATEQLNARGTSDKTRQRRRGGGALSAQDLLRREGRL

[10] = DSC of DMPC bilayers with inhibitor; type: physicochemical
[11] = DSC of DSPG bilayers with inhibitor; type: physicochemical
in vitro [12] = settings: human; remark: listed apart in the source
[13] = system: L. mexicana promastigotes; assay: L. mexicana promastigote growth inhibition; type: cell-based, Leishmania mexicana; settings: Leishmania mexicana, read-out: L. mexicana IC50, promastigotes
[14] = Mycolicibacterium smegmatis, read-out: Ms IC50, M. smegmatis
[15] = Mycobacterium tuberculosis, HN878, read-out: Mtb HN878 IC50, dose-response curves
[16] = KD, 1:1 model, 1:1 binding model, from ratio of rate constants
[17] = KD, 2-state, two-state model, from rate constants
[18] = 10 wt % inhibitor, PBS pH 7.4, heating

SMILES	IC50 (M. smegmatis; [14])	IC50 (M. tuberculosis HN878; [15])	MIC (M. tuberculosis HN878; Mycobacterium tuberculosis)	MIC (M. tuberculosis Erdman)	MIC (M. tuberculosis H37Rv)	IC50 (Bacillus subtilis)	Ec IC50 (E. coli)	IC50 [1]	IC50 [2]	IC50 [3]	IC50 [4]	CC50 (in vitro [5])	IC50 [8]	koff [9]	ka1 ([9]; two-state model)	ka2 ([9]; two-state model)	kd1 ([9]; two-state model)	kd2 ([9]; two-state model)	viability at 20 µM (in vitro [12])	IC50 [13]	further results
CCC1(NC(=O)CNCC=C(C)CCC=C(C)C)C2CC3CC(C2)CC1C3 (stereo not drawn) [Compound 7c, 2-((3,7-Dimethylocta-2,6-dien-1-yl)amino)-N-(2-ethyladamantan-2-yl)acetamide]	7.7 µM	6.6 ± 0.2 µM	6.25 µM (≈ 2.33 µg/mL)	16 µM (≈ 5.96 µg/mL)	16 µM (≈ 5.96 µg/mL)	1.9 µM	No inhibition	3.9 ± 0.3 µM	14 ± 0.04 µM	3.2 ± 0.2 µM	44 ± 11 µM	7.5 ± 0.6 µM									
CCCCC1(NC(=O)CNCC=C(C)CCC=C(C)C)C2CC3CC(C2)CC1C3 (stereo not drawn) [Compound 7e, 2-((3,7-Dimethylocta-2,6-dien-1-yl)amino)-N-(2-butyladamantan-2-yl)acetamide]	17 µM	13 ± 0.3 µM	12.5 µM (≈ 5.01 µg/mL)	15 µM (≈ 6.01 µg/mL)	15 µM (≈ 6.01 µg/mL)	2.8 µM	No inhibition	3 ± 0.2 µM	48 ± 0.07 µM	8.8 ± 1.3 µM	25 ± 14 µM	15 ± 0.5 µM									
CC(C)=CCCC(C)=CCNCC(=O)NC1(Cc2ccccc2)C2CC3CC(C2)CC1C3 (stereo not drawn) [Compound 7g, 2-((3,7-Dimethylocta-2,6-dien-1-yl)amino)-N-(2-benzyladamantan-2-yl)acetamide]	17 µM			29 µM (≈ 12.6 µg/mL)	29 µM (≈ 12.6 µg/mL)	2.3 µM	No inhibition	5.6 ± 1 µM	17 ± 4 µM	2.9 ± 0.3 µM	27 ± 0.8 µM	7 ± 0.2 µM									
CC(C)=CCCC(C)=CCNCC(=O)NC1(c2ccccc2)C2CC3CC(C2)CC1C3 (stereo not drawn) [Compound 7h, 2-((3,7-Dimethylocta-2,6-dien-1-yl)amino)-N-(2-phenyladamantan-2-yl)acetamide]	26 µM			38 µM (≈ 16 µg/mL)	38 µM (≈ 16 µg/mL)	4.5 µM	No inhibition	4.1 ± 0.6 µM	18 ± 2 µM	3.4 ± 0.2 µM	26 ± 28 µM	7 ± 0.4 µM									
CCC1(NCCNCC=C(C)CCC=C(C)C)C2CC3CC(C2)CC1C3 (stereo not drawn) [Compound 8c, N-(3,7-dimethylocta-2,6-dien-1-yl)-N′-(2-ethyladamantan-2-yl)ethane-1,2-diamine]	4 µM	2 to 3 µM	1.6 µM (≈ 0.574 µg/mL)	6.8 µM (≈ 2.44 µg/mL)	6.8 µM (≈ 2.44 µg/mL)	4.3 µM		1.4 ± 0.2 µM	8 ± 2 µM	1.3 ± 0.06 µM	2.1 ± 0.4 µM	2.5 ± 0.3 µM	0.16 ± 0.07 µM	0.841 s⁻¹	5473 M⁻¹ s⁻¹	0.006994 s⁻¹	1.284 s⁻¹	0.03012 s⁻¹	43%		IC50 (M. tuberculosis HN878; read-out: Mtb HN878 IC50, dose-response curves): 1.9 ± 0.06 µM; MIC ([6]; Mycobacteroides abscessus, read-out: Ma(S) MIC): 22 µM (≈ 7.89 µg/mL); MIC ([7]; Mycobacteroides abscessus, read-out: Ma(R) MIC): 10.7 µM (≈ 3.84 µg/mL); IC50 (E. coli; Escherichia coli, read-out: Ec IC50): 18 µM; Increased potency against PfABS compared to SQ109 ([8]; versus SQ109 1.6 μM): ~ 10 fold; kon [9]: 4710 M⁻¹ s⁻¹; Kd [9, 16]: 180 µM; Kd [9, 17]: 190 µM; Tm (main transition) [10, 18]: 16.9 °C; ΔH [10, 18]: 5.74 kcal/mol; ΔT1/2 [10, 18]: 2.0 °C; Decrease of Tm compared to DMPC without inhibitor ([10]; heating): ~6.6 °C; Tm (main transition) [11, 18]: 51.9 °C; ΔH [11, 18]: 11.9 kcal/mol; ΔT1/2 [11, 18]: 2.5 °C; Broadening of main transition peak ΔΤ1/2 compared to pure DSPG ([11]; heating): 0.2–1.6 °C; viability at 2 µM (in vitro [12]): 85%
CC(C)=CCCC(C)=CCNCCNC1(c2ncc(-c3ccccc3)s2)C2CC3CC(C2)CC1C3 (stereo not drawn) [Compound 8i, N-(3,7-dimethylocta-2,6-dien-1-yl)-N´-(2-(5-phenylthiazol-2-yl)adamantan-2-yl)ethane-1,2-diamine]															3946 M⁻¹ s⁻¹	0.006253 s⁻¹	0.434 s⁻¹	0.03057 s⁻¹			IC50 (M. smegmatis; read-out: Ms IC50, M. smegmatis): 21 µM; Ma(S) MIC [6]: 21.5 µM; Ma(R) MIC [7]: 21.5 µM; koff ([9]; 1:1 Langmuir binding model): 0.4902 s⁻¹; Kd ([9]; read-out: KD, 1:1 model, 1:1 binding model, from ratio of rate constants): 87 µM; Kd ([9]; read-out: KD, 2-state, two-state model, from rate constants): 91 µM
CC(C)=CCCC(C)=CCNCC(=O)NC(C)(C)C12CC3CC(CC(C3)C1)C2 [Compound 11, N-(2-(adamantan-1-yl)propan-2-yl)-2-((3,7-dimethylocta-2,6-dien-1-yl)amino)acetamide]	44 ± 4 µM	13 ± 2 µM	12.5 µM (≈ 4.83 µg/mL)	19 µM (≈ 7.35 µg/mL)	19 µM (≈ 7.35 µg/mL)		No inhibition	6.2 ± 0.2 µM	16 ± 4 µM	4.4 ± 0.3 µM	5 ± 0.6 µM	6.9 ± 0.1 µM	7.63 ± 1.13 µM						100%	5.2 ± 0.2 µM	
CC(C)=CCCC(C)=CCNC(=O)CNC1(C)C2CC3CC(C2)CC1C3 (stereo not drawn) [Compound 14b, N-(3,7-dimethylocta-2,6-dien-1-yl)-2-((2-methyl-2-adamantanyl)amino)acetamide]	9 µM	4.9 ± 0.1 µM	6.25 µM (≈ 2.24 µg/mL)	20 µM (≈ 7.17 µg/mL)	30 µM (≈ 10.8 µg/mL)		No inhibition	6.6 ± 0.03 µM	18 ± 4 µM	2.3 ± 0.2 µM	11 ± 0.9 µM	7.2 ± 0.9 µM	6.47 ± 0.65 µM	0.751 s⁻¹	1917 M⁻¹ s⁻¹	0.009268 s⁻¹	1.363 s⁻¹	0.02741 s⁻¹	94%	2.4 ± 0.7 µM	kon [9]: 1760 M⁻¹ s⁻¹; Kd [9, 16]: 426 µM; Kd [9, 17]: 531 µM
CCCC1(NCC(=O)NCC=C(C)CCC=C(C)C)C2CC3CC(C2)CC1C3 (stereo not drawn) [Compound 14d, N-(3,7-dimethylocta-2,6-dien-1-yl)-2-((2-propyladamantan-2-yl)amino)acetamide]	49 ± 5 µM	> 25 µM	25 µM (≈ 9.67 µg/mL)	32 µM (≈ 12.4 µg/mL)	32 µM (≈ 12.4 µg/mL)		No inhibition	2.3 ± 0.1 µM	14 ± 5 µM	2.8 ± 0.3 µM	8.4 ± 2 µM	9.1 ± 0.4 µM	5.27 ± 0.41 µM	0.754 s⁻¹	3277 M⁻¹ s⁻¹	0.005907 s⁻¹	1.04 s⁻¹	0.03103 s⁻¹	100%	0.73 ± 0.2 µM	kon [9]: 3000 M⁻¹ s⁻¹; Kd [9, 16]: 252 µM; Kd [9, 17]: 267 µM
CC(C)=CCCC(C)=CCNC(=O)CNC(C)(C)C12CC3CC(CC(C3)C1)C2 [Compound 15, 2-((2-(Adamantan-1-yl)propan-2-yl)amino)-N-(3,7-dimethylocta-2,6-dien-1-yl)acetamide]	31 ± 3 µM	17 ± 6 µM	12.5 µM (≈ 4.83 µg/mL)	38 µM (≈ 14.7 µg/mL)	38 µM (≈ 14.7 µg/mL)		No inhibition	5.9 ± 0.1 µM	15 ± 3 µM	2.6 ± 0.1 µM	12 ± 8 µM	7.1 ± 0.5 µM	5.44 ± 0.32 µM						76%	5 ± 0.1 µM	viability at 2 µM (in vitro [12]): 91%
